From ChEMBL document CHEMBL4177602, “Zaluzanin C (ZC) induces osteoblast differentiation through regulating of osteogenic genes expressions in early stage of differentiation” (Bioorg Med Chem Lett, 2017)
The source made the active and inactive calls. The rule behind the calls is not given here.

Columns and labels:
C3H 10T1/2 [1] = assay: Cytotoxicity against mouse C3H10T1/2 cells assessed as reduction in cell viability at 1 to 5 uM after 24 hrs by MTT assay; assay type: cell-based; conditions: c3h 10t1/2, 24 h
MC3T3-E1 [2] = assay: Cytotoxicity against mouse MC3T3-E1 cells assessed as reduction in cell viability at 1 to 5 uM after 24 hrs by MTT assay; assay type: cell-based; conditions: mc3t3-e1, 24 h
C3H 10T1/2 [3] = assay: Cytotoxicity against mouse C3H10T1/2 cells assessed as reduction in cell viability at >10 uM after 24 hrs by MTT assay; assay type: cell-based; conditions: c3h 10t1/2, 24 h
MC3T3-E1 [4] = assay: Cytotoxicity against mouse MC3T3-E1 cells assessed as reduction in cell viability at >10 uM after 24 hrs by MTT assay; assay type: cell-based; conditions: mc3t3-e1, 24 h
C3H 10T1/2 [5] = assay: Induction of osteoblast differentiation in mouse C3H10T1/2 cells assessed as increase in Id1 mRNA expression at 5 uM after 2 days by RT-PCR analysis; assay type: functional, cell-based
C3H 10T1/2 [6] = assay: Induction of osteoblast differentiation in mouse C3H10T1/2 cells assessed as increase in Dlx5 mRNA expression at 5 uM after 2 days by RT-PCR analysis; assay type: functional, cell-based
C3H 10T1/2 [7] = assay: Induction of osteoblast differentiation in mouse C3H10T1/2 cells assessed as increase in Runx2 mRNA expression at 5 uM after 2 days by RT-PCR analysis; assay type: functional, cell-based
C3H 10T1/2 [8] = assay: Induction of osteoblast differentiation in mouse C3H10T1/2 cells assessed as increase in Id1 mRNA expression at 5 uM after 2 days by qPCR analysis; assay type: functional, cell-based
C3H 10T1/2 [9] = assay: Induction of osteoblast differentiation in mouse C3H10T1/2 cells assessed as increase in Dlx5 mRNA expression at 5 uM after 2 days by qPCR analysis; assay type: functional, cell-based
C3H 10T1/2 [10] = assay: Induction of osteoblast differentiation in mouse C3H10T1/2 cells assessed as increase in Runx2 mRNA expression at 5 uM after 2 days by qPCR analysis; assay type: functional, cell-based
MC3T3-E1 [11] = assay: Induction of osteoblast differentiation in mouse MC3T3-E1 cells assessed as increase in Id1 mRNA expression at 5 uM after 2 days by RT-PCR analysis; assay type: functional, cell-based
MC3T3-E1 [12] = assay: Induction of osteoblast differentiation in mouse MC3T3-E1 cells assessed as increase in Dlx5 mRNA expression at 5 uM after 2 days by RT-PCR analysis; assay type: functional, cell-based
MC3T3-E1 [13] = assay: Induction of osteoblast differentiation in mouse MC3T3-E1 cells assessed as increase in Runx2 mRNA expression at 5 uM after 2 days by RT-PCR analysis; assay type: functional, cell-based
MC3T3-E1 [14] = assay: Induction of osteoblast differentiation in mouse MC3T3-E1 cells assessed as increase in Id1 mRNA expression at 5 uM after 2 days by qPCR analysis; assay type: functional, cell-based
MC3T3-E1 [15] = assay: Induction of osteoblast differentiation in mouse MC3T3-E1 cells assessed as increase in Dlx5 mRNA expression at 5 uM after 2 days by qPCR analysis; assay type: functional, cell-based
MC3T3-E1 [16] = assay: Induction of osteoblast differentiation in mouse MC3T3-E1 cells assessed as increase in Runx2 mRNA expression at 5 uM after 2 days by qPCR analysis; assay type: functional, cell-based
C3H 10T1/2 [17] = assay: Induction of osteoblast differentiation in mouse C3H10T1/2 cells assessed as increase in Runx2 protein level at 5 uM after 2 days by Western blot analysis; assay type: functional, cell-based
MC3T3-E1 [18] = assay: Induction of osteoblast differentiation in mouse MC3T3-E1 cells assessed as increase in Runx2 protein level at 5 uM after 2 days by Western blot analysis; assay type: functional, cell-based
MC3T3-E1 [19] = assay: Induction of osteoblast differentiation in mouse MC3T3-E1 cells assessed as increase in ALP activity at 5 uM after 4 days BCIP/NBT liquid substrate based assay; assay type: functional, cell-based
MC3T3-E1 [20] = assay: Induction of mineralization in mouse MC3T3-E1 cells at 5 uM after 14 days by alizarin red S staining based assay; assay type: functional, cell-based
MC3T3-E1 [21] = assay: Induction of osteoblast differentiation in mouse MC3T3-E1 cells assessed as increase in ALP activity at 5 uM after 4 days in presence of ascorbic acid/beta-GP BCIP/NBT liquid substrate based assay; assay type: functional, cell-based
MC3T3-E1 [22] = assay: Induction of mineralization in mouse MC3T3-E1 cells at 5 uM after 14 days in presence of ascorbic acid/beta-GP by alizarin red S staining based assay; assay type: functional, cell-based
MC3T3-E1 [23] = assay: Increase in Runx2 (unknown origin) promoter activity expressed in mouse MC3T3-E1 cells at 5 uM after 48 hrs by luciferase reporter gene assay; assay type: cell-based
[24] = Increase in Runx2 (unknown origin) promoter activity expressed in mouse C3H10T1/2 cells at 5 uM after 48 hrs by luciferase reporter gene assay; assay type: cell-based
MC3T3-E1 [25] = assay: Induction of osteoblast differentiation in Runx2 knockdown mouse MC3T3-E1 cells assessed as increase in ALP activity at 5 uM after 4 days BCIP/NBT liquid substrate based assay; assay type: functional, cell-based

Question: Which Activity (C3H 10T1/2 [1]) does the source give for C=C1[C@@H]2[C@H]3OC(=O)C(=C)[C@@H]3CCC(=C)[C@@H]2C[C@@H]1O [ZALUZANIN C] here?
Answer: Non-Toxic

Question: What about the Activity (MC3T3-E1 [2]) of the same compound?
Answer: Non-Toxic

Question: What about the Activity (C3H 10T1/2 [3]) of the same compound?
Answer: Toxic

Question: What about the Activity (MC3T3-E1 [4]) of the same compound?
Answer: Toxic

Question: And the Activity (C3H 10T1/2 [5])?
Answer: Active

Question: What about the Activity (C3H 10T1/2 [6]) of the same compound?
Answer: Active

Question: And the Activity (C3H 10T1/2 [7])?
Answer: Active

Question: What about the Activity (C3H 10T1/2 [8]) of the same compound?
Answer: Active

Question: And the Activity (C3H 10T1/2 [9])?
Answer: Active

Question: And the Activity (C3H 10T1/2 [10])?
Answer: Active

Question: What about the Activity (MC3T3-E1 [11]) of the same compound?
Answer: Active

Question: What about the Activity (MC3T3-E1 [12]) of the same compound?
Answer: Active

Question: What about the Activity (MC3T3-E1 [13]) of the same compound?
Answer: Active

Question: What about the Activity (MC3T3-E1 [14]) of the same compound?
Answer: Active

Question: What about the Activity (MC3T3-E1 [15]) of the same compound?
Answer: Active

Question: And the Activity (MC3T3-E1 [16])?
Answer: Active

Question: And the Activity (C3H 10T1/2 [17])?
Answer: Active

Question: And the Activity (MC3T3-E1 [18])?
Answer: Active

Question: What about the Activity (MC3T3-E1 [19]) of the same compound?
Answer: Active

Question: What about the Activity (MC3T3-E1 [20]) of the same compound?
Answer: Active

Question: And the Activity (MC3T3-E1 [21])?
Answer: Active

Question: And the Activity (MC3T3-E1 [22])?
Answer: Active

Question: And the Activity (MC3T3-E1 [23])?
Answer: Active

Question: What about the Activity [24] of the same compound?
Answer: Active

Question: And the Activity (MC3T3-E1 [25])?
Answer: inactive
